Patent US20200291100A1, “TREATMENT OF AGE-RELATED AND MITOCHONDRIAL DISEASES BY INHIBITION OF HIF-1 ALPHA FUNCTION” (President and Fellows of Harvard College, priority 2012, published 2020)

Legend:
PGC-1α/β KO cells = assay: Pyruvate supplementation of PGC-1α/β KO cells with or without DMOG, mitochondrial-encoded gene expression; format: cell-based, mouse; settings: DMOG added to pyruvate-treated cells
Excerpt: FIGS. 21A-21N provide additional data related to the content of FIG. 14. FIG. 21A depicts HIF-1α target genes (PGK-1, Glut1, PDK1 and Vegfa) expression in gastrocnemius of WT and SIRT1 KO mice. Relative expression values were normalized to WT mice (n=5). FIG. 21B depicts hypoxia response element activity in primary myoblasts isolated from WT and SIRT1 KO mice and treated with or without DMOG. Relative luciferase activity was normalized to WT cells (n=6, *p<0.05 versus WT). FIG. 21C depicts a representative immunoblot of HIF-1a and Tubulin in PGC-1α/β KO myotubes treated with adenovirus overexpressing SIRT1 or empty vector as well as treatment with DMSO or with HIF stabilizing compound DMOG. FIG. 21D depicts NAD+/NADH ration measured in primary WT myoblasts treated with either 10 mM pyruvate, 10 mM lactate or vehicle for 24 h (n=4). […] FIG. 21J depicts mitochondrial DNA content analyzed by qPCR in control, HIF-1α DPA or HIF-2α DPA C2C12 cells treated with adenovirus overexpressing SIRT1 or empty vector. […] FIG. 21K depicts ARNT mRNA analyzed by qPCR in C2C12 cells infected with ARNT or nontargeting shRNA. […] FIG. 21L depicts mitochondrial DNA content analyzed by qPCR in C2C12 cells infected with ARNT or nontargeting shRNA. […] FIG. 21M depicts ND1, Cytb, COX1 and ATP6 mRNA analyzed by qPCR in C2C12 cells infected with ARNT or nontargeting shRNA. […] Values are expressed as mean±SEM. […]

[1] = tested on: 3- and 24-month-old C57BL/6J mice; assay: NMN treatment of 3- and 24-month-old mice, skeletal muscle readouts; format: in vivo, mouse; settings: NMN 500 mg/kg IP, one week
Procedure: C57BL/6J mice of 3, 6, 22, 24, or 30 months of age were obtained from the National Institutes of Aging mouse aging colony. Mice were acclimated for at least one-week prior to sacrifice. 3, and 24-month-old mice were given interperitoneal (IP) injections of 500 mg NMN/kg body weight per day or the equivalent volume of PBS for 7 consecutive days at 5:00 pm and 7:00 am on day 8 and sacrificed 4 hr after last injection. All animal studies followed the guidelines of and were approved by the Harvard Institutional Animal Care and Use Committee
Skeletal muscle mitochondria were isolated as described previously (Frezza et al., Nat. Protoc. 2:287-295 (2007)). Mitochondrial membrane potential, cytochrome c activity and succinate dehydrogenase were determined as described (Brautigan et al., Methods Enzymol. 53:128-164 (1978); Rolo et al., Biochim. Biophys. Acta. 1637:127-132 ([…]); Singer, T. P., Methods Biochem. Anal. 22:123-175 (1974)). ATP content was measured with a commercial kit according to the manufacturer's instructions (Roche).
NAD^+ from C2C12 cells and skeletal muscle was quantified with a commercially available kit (BioVision) according to the manufacturer's instructions and as described before (Gomes et al., Biochim. Biophys. Acta. 1822:185-195 (2012)).
To test whether a decline in NAD^+ availability, invokes a pseudohypoxic response in muscle that inhibits mitochondrial function, we treated 3- and 24-month-old C57BL/6J mice for one week by intraperitoneal injection of nicotinamide mononucleotide (NMN) (500 mg/kg body weight), a compound that increases NAD^+ levels in a variety of tissues. After the treatment, levels of cellular NAD^+ in both the young and old mice were approximately 2-fold higher, such that the treated 24-month-old mice resembled the untreated 3-month-olds (FIG. 10A).

[2] = skeletal muscle, treated old (24-month) mice

## COC(=O)CNC(=O)C(=O)OC [DMOG, dimethyloxaloylglycine]
PGC-1α/β KO cells
  effect on NAD+ mediated increases in mitochondrial-encoded genes: inhibited

## NC(=O)c1ccc[n+]([C@@H]2O[C@H](COP(=O)([O-])O)[C@@H](O)[C@H]2O)c1 [NMN, nicotinamide mononucleotide]
[1]; gastrocnemius, qPCR, 24-month-old mice
  expression of HIF-1α target genes (PGK-1, Glut1, PKD1, VEGFa): suppressed the expression
[1]; gastrocnemius, 24-month-old mice
  HIF-1α in muscle (immunoblot): reversed the age-induced increase
[1]; gastrocnemius, young and old mice, versus untreated
  levels of cellular NAD+: approximately 2 fold
[1]; isolated skeletal muscle mitochondria, treated old (24-month) mice
  mitochondrial membrane potential: restoration of mitochondrial membrane potential to the levels of the young mice
[1]; [2]
  ATP levels: increases
  COX activity: increases
